Values quoted from earlier work in patent US20010036486A1, “Method for treating nicotine addiction and deterring tobacco use with hypericum perforatum” (priority 2000, published 2001).

Conditions: small study; Edward et al. 1989

In the case of CN(C)CCC=C1c2ccccc2COc2ccccc21 [doxepin], the “help for smoking cessation” value is listed as “showed some promise for helping smoking cessation”.
